Reference: ChEMBL document CHEMBL5223091, “Targeting the Mitotic Kinesin KIF18A in Chromosomally Unstable Cancers: Hit Optimization Toward an In Vivo Chemical Probe” (J Med Chem, 2022)

Assays:
[1] = Cmax in CD-1 mouse at 1 mg/kg, iv and 10 mg/kg, po; type: ADME, organism-based; parameters: dose 10 mg/kg, route po; settings: in vivo
[2] = Metabolic stability in human liver microsomes assessed as intrinsic clearance at 0.5 uM incubated upto 40 mins by LCMS analysis; type: ADME, Microsome; settings: read-out: CLH
[3] = Half life in CD-1 mouse at 1 mg/kg, iv and 10 mg/kg, po; type: ADME, organism-based; settings: in vivo
[4] = Oral bioavailability in CD-1 mouse at 10 mg/kg; type: ADME, organism-based; settings: in vivo
[5] = Unbound fraction in plasma (unknown origin) by ultracentrifugation; type: ADME, cell-free
[6] = tested on: OVCAR-3; assay: Induction of mitotic arrest in human OVCAR-3 cells assessed as p-histone H3 incubated for 24 hrs by mitotic - imaging assay; type: functional, cell-based; settings: OVCAR-3, 24 h
[7] = target: T1, Kinesin-like protein KIF18A (Homo sapiens, UniProt Q8NI77); assay: Inhibition of recombinant His-tagged human KIF18A (1 to 467 residues) expressed in Trichoplusia ni insect cells assessed as inhibition of microtubule-stimulated ATPase activity preincubated for 30 mins followed by ATP addition and further incubated for 15 mins by ADP-Glo reagent based assay; parameters: species or system Insect cell
T1 sequence (Q8NI77 whole entry): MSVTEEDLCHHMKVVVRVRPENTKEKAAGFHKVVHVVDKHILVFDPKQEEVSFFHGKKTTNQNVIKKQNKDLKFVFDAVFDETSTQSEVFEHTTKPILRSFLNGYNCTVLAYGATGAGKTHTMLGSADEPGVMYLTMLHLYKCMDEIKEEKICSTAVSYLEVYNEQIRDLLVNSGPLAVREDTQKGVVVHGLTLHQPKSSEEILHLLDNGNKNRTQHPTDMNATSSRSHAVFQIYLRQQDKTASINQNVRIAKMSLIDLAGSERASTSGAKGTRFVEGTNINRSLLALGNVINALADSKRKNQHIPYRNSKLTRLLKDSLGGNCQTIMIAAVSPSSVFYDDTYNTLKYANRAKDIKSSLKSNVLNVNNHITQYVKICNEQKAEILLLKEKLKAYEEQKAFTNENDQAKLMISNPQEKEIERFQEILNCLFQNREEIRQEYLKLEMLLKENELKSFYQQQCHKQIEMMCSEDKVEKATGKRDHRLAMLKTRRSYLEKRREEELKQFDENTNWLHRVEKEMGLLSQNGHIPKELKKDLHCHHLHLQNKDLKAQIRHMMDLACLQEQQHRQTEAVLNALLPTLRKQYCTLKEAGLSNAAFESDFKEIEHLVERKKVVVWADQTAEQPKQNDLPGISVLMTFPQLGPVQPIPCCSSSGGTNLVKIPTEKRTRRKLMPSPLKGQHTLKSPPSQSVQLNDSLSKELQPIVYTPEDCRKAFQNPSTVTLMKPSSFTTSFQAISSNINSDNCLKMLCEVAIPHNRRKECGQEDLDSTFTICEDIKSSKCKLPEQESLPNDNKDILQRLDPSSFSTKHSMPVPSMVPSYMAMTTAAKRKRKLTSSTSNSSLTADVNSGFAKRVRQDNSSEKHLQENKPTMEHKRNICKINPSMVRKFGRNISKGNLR

[8] = Clearance in CD-1 mouse at 1 mg/kg, iv and 10 mg/kg, po; type: ADME, organism-based; settings: in vivo
[9] = tested on: OVCAR-3; assay: Antiproliferative activity against human OVCAR-3 cells by nuclear count assay; type: functional, cell-based
[10] = Volume of distribution at steady state in CD-1 mouse at 1 mg/kg, iv and 10 mg/kg, po; type: ADME, organism-based; settings: in vivo
[11] = Metabolic stability in mouse liver microsomes assessed as intrinsic clearance at 0.5 uM incubated upto 40 mins by LCMS analysis; type: ADME, Microsome; settings: read-out: CLH
[12] = tested on: MDA-MB-157; assay: Induction of mitotic arrest in TP53 mutant human MDA-MB-157 cells assessed as multipolar spindle arrays by measuring pericentriolar material incubated for 24 hrs by mitotic index assay; type: functional, cell-based; settings: MDA-MB-157, 24 h
[13] = target: T2, Kinesin-like protein KIF11 (Homo sapiens, UniProt P52732); assay: Inhibition of recombinant GST-tagged human Eg5 assessed as inhibition of microtubule-stimulated ATPase activity preincubated for 30 mins followed by ATP addition and further incubated for 15 mins by ADP-Glo reagent based assay
T2 sequence (P52732 whole entry): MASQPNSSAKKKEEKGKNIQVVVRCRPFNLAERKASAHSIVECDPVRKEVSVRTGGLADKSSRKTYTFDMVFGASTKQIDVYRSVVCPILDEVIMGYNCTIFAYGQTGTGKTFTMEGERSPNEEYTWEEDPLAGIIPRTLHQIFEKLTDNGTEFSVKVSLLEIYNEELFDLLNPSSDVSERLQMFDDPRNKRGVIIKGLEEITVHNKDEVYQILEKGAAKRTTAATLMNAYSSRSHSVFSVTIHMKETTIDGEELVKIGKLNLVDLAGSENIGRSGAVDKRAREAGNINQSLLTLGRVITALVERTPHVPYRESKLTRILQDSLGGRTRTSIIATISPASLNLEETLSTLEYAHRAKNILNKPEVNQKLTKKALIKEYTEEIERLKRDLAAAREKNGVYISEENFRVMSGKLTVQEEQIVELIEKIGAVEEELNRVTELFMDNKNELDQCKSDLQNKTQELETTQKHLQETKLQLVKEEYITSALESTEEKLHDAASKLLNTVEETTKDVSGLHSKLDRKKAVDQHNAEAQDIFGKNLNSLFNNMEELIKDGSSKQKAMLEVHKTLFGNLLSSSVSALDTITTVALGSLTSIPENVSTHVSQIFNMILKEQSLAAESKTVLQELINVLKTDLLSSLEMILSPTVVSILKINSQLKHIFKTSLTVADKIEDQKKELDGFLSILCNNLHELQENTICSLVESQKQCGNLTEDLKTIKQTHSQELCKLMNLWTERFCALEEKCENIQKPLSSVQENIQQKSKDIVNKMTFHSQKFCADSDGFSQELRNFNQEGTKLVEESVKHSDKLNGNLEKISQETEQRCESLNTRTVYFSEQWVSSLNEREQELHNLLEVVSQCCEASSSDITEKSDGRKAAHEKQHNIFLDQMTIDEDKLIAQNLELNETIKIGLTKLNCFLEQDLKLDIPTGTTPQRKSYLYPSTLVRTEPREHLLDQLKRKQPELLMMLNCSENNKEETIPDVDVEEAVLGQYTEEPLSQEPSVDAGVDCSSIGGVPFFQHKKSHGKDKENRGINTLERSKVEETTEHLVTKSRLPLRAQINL

[14] = target: Centromere-associated protein E (Homo sapiens, UniProt Q02224); assay: Inhibition of recombinant GST-tagged human CENP-E assessed as inhibition of microtubule-stimulated ATPase activity preincubated for 30 mins followed by ATP addition and further incubated for 15 mins by ADP-Glo reagent based assay
Chain of Centromere-associated protein E (Q02224 whole entry): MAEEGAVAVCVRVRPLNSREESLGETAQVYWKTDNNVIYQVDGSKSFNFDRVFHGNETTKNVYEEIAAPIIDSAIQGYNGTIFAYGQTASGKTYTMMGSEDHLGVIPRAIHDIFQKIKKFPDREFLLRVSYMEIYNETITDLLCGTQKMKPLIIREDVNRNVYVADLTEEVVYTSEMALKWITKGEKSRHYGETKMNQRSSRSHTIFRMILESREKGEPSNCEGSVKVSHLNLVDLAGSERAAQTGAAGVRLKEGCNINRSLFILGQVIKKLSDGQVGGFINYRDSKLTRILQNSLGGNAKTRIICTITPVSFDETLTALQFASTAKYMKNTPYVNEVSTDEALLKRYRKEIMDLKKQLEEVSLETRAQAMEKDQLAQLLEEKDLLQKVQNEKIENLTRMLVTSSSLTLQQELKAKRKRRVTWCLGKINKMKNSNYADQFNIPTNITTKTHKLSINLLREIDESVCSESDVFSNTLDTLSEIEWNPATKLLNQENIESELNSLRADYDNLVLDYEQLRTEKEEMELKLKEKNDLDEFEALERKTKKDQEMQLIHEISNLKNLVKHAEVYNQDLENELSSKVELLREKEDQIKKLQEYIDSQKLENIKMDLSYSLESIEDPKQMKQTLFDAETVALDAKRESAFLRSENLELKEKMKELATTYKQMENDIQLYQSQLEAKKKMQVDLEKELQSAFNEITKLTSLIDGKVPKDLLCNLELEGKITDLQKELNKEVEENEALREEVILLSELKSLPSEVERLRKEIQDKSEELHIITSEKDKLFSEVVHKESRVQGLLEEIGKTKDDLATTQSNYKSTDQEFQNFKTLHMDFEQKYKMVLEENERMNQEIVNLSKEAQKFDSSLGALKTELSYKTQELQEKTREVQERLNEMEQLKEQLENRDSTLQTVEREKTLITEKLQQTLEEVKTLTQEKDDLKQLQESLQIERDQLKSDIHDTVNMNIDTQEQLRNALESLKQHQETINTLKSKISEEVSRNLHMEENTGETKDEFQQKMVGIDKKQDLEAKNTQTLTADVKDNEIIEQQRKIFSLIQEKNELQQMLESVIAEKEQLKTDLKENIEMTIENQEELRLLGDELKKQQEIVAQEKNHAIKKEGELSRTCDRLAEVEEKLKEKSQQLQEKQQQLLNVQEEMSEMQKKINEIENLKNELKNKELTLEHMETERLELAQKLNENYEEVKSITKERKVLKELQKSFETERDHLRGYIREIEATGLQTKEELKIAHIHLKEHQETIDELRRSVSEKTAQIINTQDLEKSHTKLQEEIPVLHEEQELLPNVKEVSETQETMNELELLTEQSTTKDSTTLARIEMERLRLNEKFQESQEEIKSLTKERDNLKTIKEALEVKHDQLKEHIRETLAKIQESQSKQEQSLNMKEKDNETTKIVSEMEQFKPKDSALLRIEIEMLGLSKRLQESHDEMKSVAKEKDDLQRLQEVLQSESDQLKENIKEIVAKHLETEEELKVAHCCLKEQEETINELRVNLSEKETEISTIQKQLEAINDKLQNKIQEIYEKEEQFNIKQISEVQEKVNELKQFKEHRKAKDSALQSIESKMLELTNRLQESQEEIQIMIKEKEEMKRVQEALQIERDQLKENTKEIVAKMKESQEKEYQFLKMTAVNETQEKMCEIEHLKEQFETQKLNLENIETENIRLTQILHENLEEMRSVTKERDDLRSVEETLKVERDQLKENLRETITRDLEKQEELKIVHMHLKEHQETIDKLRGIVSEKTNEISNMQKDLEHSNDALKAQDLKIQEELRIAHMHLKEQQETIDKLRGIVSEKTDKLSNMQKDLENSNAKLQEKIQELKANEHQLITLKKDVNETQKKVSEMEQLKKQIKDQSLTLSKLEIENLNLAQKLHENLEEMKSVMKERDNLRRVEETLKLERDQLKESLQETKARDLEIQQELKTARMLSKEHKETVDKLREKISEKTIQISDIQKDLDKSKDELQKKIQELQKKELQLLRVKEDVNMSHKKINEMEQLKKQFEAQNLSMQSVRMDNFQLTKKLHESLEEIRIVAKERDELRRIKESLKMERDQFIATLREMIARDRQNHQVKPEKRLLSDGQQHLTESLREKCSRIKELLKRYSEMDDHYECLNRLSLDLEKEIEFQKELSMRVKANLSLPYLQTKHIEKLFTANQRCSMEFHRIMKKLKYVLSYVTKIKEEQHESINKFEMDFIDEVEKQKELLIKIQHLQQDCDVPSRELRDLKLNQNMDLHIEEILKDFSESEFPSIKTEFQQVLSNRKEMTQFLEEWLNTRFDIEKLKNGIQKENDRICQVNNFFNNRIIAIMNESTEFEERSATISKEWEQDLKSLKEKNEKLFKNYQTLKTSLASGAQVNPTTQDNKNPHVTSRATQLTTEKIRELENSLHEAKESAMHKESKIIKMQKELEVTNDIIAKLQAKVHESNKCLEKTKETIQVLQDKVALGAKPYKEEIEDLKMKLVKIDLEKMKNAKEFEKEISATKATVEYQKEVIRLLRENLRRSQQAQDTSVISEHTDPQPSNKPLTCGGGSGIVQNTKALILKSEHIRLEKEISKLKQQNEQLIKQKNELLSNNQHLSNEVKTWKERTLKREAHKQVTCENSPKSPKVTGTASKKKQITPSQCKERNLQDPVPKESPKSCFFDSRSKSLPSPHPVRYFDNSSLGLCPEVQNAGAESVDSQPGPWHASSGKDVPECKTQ

[15] = Plasma concentration in CD-1 mouse xenografted with human OVCAR-3 cells at 100 mg/kg, ip measured upto 24 hrs by LC-MS/MS analysis; type: ADME, organism-based
[16] = Unbound fraction in CD-1 mouse plasma xenografted with human OVCAR-3 cells at 100 mg/kg, ip by LC-MS/MS analysis; type: ADME, organism-based
[17] = Cmax in CD-1 mouse xenografted with human OVCAR-3 cells at 100 mg/kg, ip by LC-MS/MS analysis; type: ADME, organism-based; parameters: dose 100 mg/kg, route ip; settings: in vivo
[18] = AUC (0 to 24 hrs) in CD-1 mouse xenografted with human OVCAR-3 cells at 100 mg/kg, ip by LC-MS/MS analysis; type: ADME, organism-based; parameters: dose 100 mg/kg, route ip; settings: in vivo

microsomal CLint at 0.5 µM [2]	EC50 [6]	IC50 [7]	EC50 [9]	microsomal CLint at 0.5 µM [11]	SMILES	also measured
83 µL/min/mg	75 nM	166 nM	62 nM	58 µL/min/mg	CC(C)(C)NS(=O)(=O)c1cccc(NC(=O)c2ccc(NC3(CO)CC3)cc2N2CCC3(CC2)CC3)n1	Cmax [1]: 5.45 µM; half-life [3]: 1.5 h; bioavailability [4]: 22%; fraction unbound [5]: 0.011; CL [8]: 5 mL/min/kg; Vdss [10]: 0.3 L/kg
189 µL/min/mg	28 nM	140 nM	23 nM	> 399 µL/min/mg	CC(C)(C)NS(=O)(=O)c1cccc(NC(=O)c2ccc(NC(C)(C)CO)cc2N2CCC3(CC2)CC3)n1	–
> 399 µL/min/mg	4630 nM	5310 nM	4780 nM	> 399 µL/min/mg	O=C(Nc1cccc(S(=O)(=O)C2CCCC2)c1)c1cccnc1N1CCC(F)(F)CC1	–
255 µL/min/mg	–	520 nM	–	> 399 µL/min/mg	O=C(Nc1cccc(S(=O)(=O)N2CCCCC2)c1)c1cn[nH]c1-c1ccc(Cl)cc1	IC50 [12]: 8800 nM; IC50 [13]: > 100000 nM; IC50 [14]: > 100000 nM
375 µL/min/mg	4290 nM	3150 nM	4480 nM	> 399 µL/min/mg	CC(C)S(=O)(=O)c1cccc(NC(=O)c2cccnc2N2CCC3(CC2)CC3)c1	–
> 399 µL/min/mg	5460 nM	1830 nM	4420 nM	> 399 µL/min/mg	O=C(Nc1cccc(S(=O)(=O)N2CCCC2)c1)c1cccnc1N1CCC2(CC1)CC2	–
> 399 µL/min/mg	48 nM	80 nM	32 nM	> 399 µL/min/mg	CC(C)(CO)Nc1ccc(C(=O)Nc2cccc(S(=O)(=O)NC3CCCC3)n2)c(N2CCC3(CC2)CC3)c1	–
> 399 µL/min/mg	2720 nM	1250 nM	2140 nM	> 399 µL/min/mg	CC1(C)CCN(c2ncccc2C(=O)Nc2cccc(S(=O)(=O)C3CCCC3)c2)CC1	–
> 399 µL/min/mg	228 nM	165 nM	229 nM	> 399 µL/min/mg	CC(C)(O)CNc1ccc(C(=O)Nc2cccc(S(=O)(=O)C3CCCC3)n2)c(N2CCC3(CC2)CC3)c1	–
> 399 µL/min/mg	449 nM	253 nM	358 nM	> 399 µL/min/mg	CN(CCO)c1ccc(C(=O)Nc2cccc(S(=O)(=O)C3CCCC3)n2)c(N2CCC3(CC2)CC3)c1	–
183 µL/min/mg	14800 nM	8880 nM	12600 nM	385 µL/min/mg	O=C(Nc1cccc(S(=O)(=O)C2COC2)c1)c1cccnc1N1CCC2(CC1)CC2	–
> 399 µL/min/mg	2660 nM	360 nM	2350 nM	> 399 µL/min/mg	COc1ccc(C(=O)Nc2cccc(S(=O)(=O)C3CCCC3)n2)c(N2CCC3(CC2)CC3)c1	–
74 µL/min/mg	190 nM	135 nM	110 nM	76 µL/min/mg	CC(C)(C)NS(=O)(=O)c1cccc(NC(=O)c2ncc(NC(C)(C)CO)nc2N2CCC3(CC2)CC3)c1	Cmax [1]: 2.43 µM; half-life [3]: 3.6 h; bioavailability [4]: 13%; fraction unbound [5]: 0.019; CL [8]: 5 mL/min/kg; Vdss [10]: 0.7 L/kg
> 399 µL/min/mg	177 nM	92 nM	117 nM	> 399 µL/min/mg	O=C(Nc1cccc(S(=O)(=O)C2CCCC2)n1)c1ccc(NCCO)cc1N1CCC2(CC1)CC2	–
> 399 µL/min/mg	1030 nM	320 nM	840 nM	> 399 µL/min/mg	CC(C)(C)NS(=O)(=O)c1cccc(NC(=O)c2cccnc2N2CCC3(CC2)CC3)c1	–
154 µL/min/mg	45800 nM	31600 nM	31200 nM	> 399 µL/min/mg	CC(C)(CO)S(=O)(=O)c1cccc(NC(=O)c2cccnc2N2CCC3(CC2)CC3)c1	–
–	–	1700 nM	–	–	O=[N+]([O-])c1cc(Cl)ccc1S(=O)(=O)c1ccccc1	–
> 399 µL/min/mg	6350 nM	6160 nM	5030 nM	> 399 µL/min/mg	O=C(Nc1cccc(S(=O)(=O)C2CCCC2)c1)c1cccnc1N1CCCCC1	IC50 [12]: 4800 nM; IC50 [13]: > 100000 nM; IC50 [14]: > 100000 nM
> 399 µL/min/mg	2260 nM	580 nM	1790 nM	> 399 µL/min/mg	O=C(Nc1cccc(S(=O)(=O)NC2CC2)c1)c1cccnc1N1CCC2(CC1)CC2	–
90 µL/min/mg	11 nM	–	11 nM	90 µL/min/mg	CC(C)(C)NS(=O)(=O)c1cccc(NC(=O)c2ccc(NS(=O)(=O)C3(C)CC3)cc2N2CCC3(CC2)CC3)c1	concentration at 24 h [15]: 0.8 µM; fraction unbound [16]: 0.015; Cmax [17]: 26.5 µM; AUC(0-t) [18]: 269 µM·h
–	–	32 nM	–	–	O=C(Nc1cccc(C2(C(F)(F)F)N=N2)c1)c1ccc(NS(=O)(=O)CCO)nc1N1CCC2(CC1)CC2	–
> 399 µL/min/mg	43 nM	81 nM	42 nM	> 399 µL/min/mg	CC(C)(C)NS(=O)(=O)c1cccc(NC(=O)c2ccc(NC(C)(C)CO)nc2N2CCC3(CC2)CC3)n1	–
